Test results from PMC9777073, “A Fenchone Derivative Effectively Abrogates Joint Damage Following Post-Traumatic Osteoarthritis in Lewis Rats” (Cells, 2022).

Molecular target: T1, cannabinoid receptor 1 (CB1) (Homo sapiens, UniProt P21554)
T1 construct: gene CNR1
Assay: cell-based
Design: species or system CHO-K1
Conditions: read-out: Antagonist IC50 RC50
Text: For agonist analysis, we monitored “evaluation of potency” (EC50) and % efficacy (Max response), which were reflected by increased intracellular cAMP levels detected in cAMP Hunter™ Gs cell lines (CHO-K1 lines) overexpressing human CNR1 (i.e., gene encoding CB1) or CNR2 (i.e., gene encoding CB2). Alternatively, antagonist activity (i.e., inhibitory concentration or IC50) utilized a cAMP Hunter™ Gi cell lines (CHO-K1 lines), detecting an intracellular reduction in cAMP levels in cells overexpressing CNR1 and CNR2. These cell lines are designed to be used in conjunction with the HitHunter® cAMP Assay Detection Kit. Specifically, for agonist assay, cells were subjected to positive controls, known to activate the increase in cAMP for both receptors (agonist control 20 µM Forskolin for CB1 and 25 µM Forskolin for CB2). […] Prior to testing the cell, plating media were exchanged with 10 uL of Assay buffer (HBSS + 10 mM HEPES). Agonist results are expressed as percent efficacy relative to the maximum response of the control ligand (%Effc or EC50), while antagonist results are expressed as percent inhibition of the control ligand (IC50) normalized to the unantagonized vehicle.

T1 sequence (P21554 whole entry): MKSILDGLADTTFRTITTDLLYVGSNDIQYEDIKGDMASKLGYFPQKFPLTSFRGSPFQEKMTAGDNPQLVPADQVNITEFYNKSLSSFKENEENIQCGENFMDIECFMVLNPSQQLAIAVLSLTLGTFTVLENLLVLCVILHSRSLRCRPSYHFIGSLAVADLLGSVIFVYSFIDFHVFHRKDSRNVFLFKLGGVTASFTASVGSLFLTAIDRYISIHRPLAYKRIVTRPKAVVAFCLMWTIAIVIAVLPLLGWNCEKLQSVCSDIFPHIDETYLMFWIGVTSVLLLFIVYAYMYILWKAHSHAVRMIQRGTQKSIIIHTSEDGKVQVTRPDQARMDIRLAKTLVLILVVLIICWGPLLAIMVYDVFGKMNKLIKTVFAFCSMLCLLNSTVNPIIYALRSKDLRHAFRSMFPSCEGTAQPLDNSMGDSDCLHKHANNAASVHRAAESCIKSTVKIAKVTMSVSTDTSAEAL

Cc1c(C(=O)NN2CCOCC2)nn(-c2ccc(Cl)cc2Cl)c1-c1ccc(I)cc1 [AM281]
IC50: 22.4 nM
